Data reported in US20210045385A1, “PYRIDAZINONE-SUBSTITUTED KETOXIMES AS HERBICIDES” (FMC Corporation, priority 2018, published 2021).

Assays:
Type in all cases: in vivo
corn (Zea mays) = assay: Test A postemergence, visual plant response rating; settings: for Corn plant response rating (0 to 100 scale): 500 g ai/ha, postemergence, 0 is no effect, 100 is complete control; for Corn plant response rating: Postemergence, 125 g ai/ha, 0 to 100 scale (0 no effect, 100 complete control)
Method in brief: (§1)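 Greenhouse pot test in loam–sand soil mix: compound in a surfactant-containing non-phytotoxic solvent applied preemergence (directed soil spray) or postemergence (one- to two-leaf plants, 2–10 cm). Injury scored visually after ~10 days, 0–100.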

[1] = system: foxtail, giant (giant foxtail, Setaria faberii); assay: Test A postemergence, visual plant response rating; settings: for Foxtail, Giant plant response rating (0 to 100 scale): 500 g ai/ha, postemergence, 0 is no effect, 100 is complete control; for Foxtail, Giant plant response rating: Postemergence, 125 g ai/ha, 0 to 100 scale (0 no effect, 100 complete control)
Method in brief: as §1

[2] = system: galium (catchweed bedstraw, Galium aparine); assay: Test A postemergence, visual plant response rating; settings: for Galium plant response rating (0 to 100 scale): 500 g ai/ha, postemergence, 0 is no effect, 100 is complete control; for Galium plant response rating: Postemergence, 125 g ai/ha, 0 to 100 scale (0 no effect, 100 complete control)
Method in brief: as §1

[3] = system: pigweed (Amaranthus retroflexus); assay: Test A postemergence, visual plant response rating; settings: for Pigweed plant response rating (0 to 100 scale): 500 g ai/ha, postemergence, 0 is no effect, 100 is complete control; for Pigweed plant response rating: Postemergence, 125 g ai/ha, 0 to 100 scale (0 no effect, 100 complete control)
Method in brief: as §1

[4] = system: barnyardgrass (Echinochloa crus-galli); assay: Test A postemergence, visual plant response rating; settings: for Barnyardgrass plant response rating (0 to 100 scale): 500 g ai/ha, postemergence, 0 is no effect, 100 is complete control; for Barnyardgrass plant response rating: Postemergence, 125 g ai/ha, 0 to 100 scale (0 no effect, 100 complete control)
Method in brief: as §1

kochia (Kochia scoparia) [5] = assay: Test A postemergence, visual plant response rating; settings: for Kochia plant response rating (0 to 100 scale): 500 g ai/ha, postemergence, 0 is no effect, 100 is complete control; for Kochia plant response rating: Postemergence, 125 g ai/ha, 0 to 100 scale (0 no effect, 100 complete control)
Method in brief: as §1

[6] = system: blackgrass (Alopecurus myosuroides); assay: Test A postemergence, visual plant response rating; settings: for Blackgrass plant response rating (0 to 100 scale): 500 g ai/ha, postemergence, 0 is no effect, 100 is complete control; for Blackgrass plant response rating: Postemergence, 125 g ai/ha, 0 to 100 scale (0 no effect, 100 complete control)
Method in brief: as §1

[7] = system: wheat (Triticum aestivum); assay: Test A postemergence, visual plant response rating; settings: for Wheat plant response rating (0 to 100 scale): 500 g ai/ha, postemergence, 0 is no effect, 100 is complete control; for Wheat plant response rating: Postemergence, 125 g ai/ha, 0 to 100 scale (0 no effect, 100 complete control)
Method in brief: as §1

[8] = system: ragweed (common ragweed, Ambrosia elatior); assay: Test A postemergence, visual plant response rating; settings: for Ragweed plant response rating (0 to 100 scale): 500 g ai/ha, postemergence, 0 is no effect, 100 is complete control; for Ragweed plant response rating: Postemergence, 125 g ai/ha, 0 to 100 scale (0 no effect, 100 complete control)
Method in brief: as §1

[9] = system: Italian ryegrass (Lolium multiflorum); assay: Test A postemergence, visual plant response rating; settings: for Ryegrass, Italian plant response rating (0 to 100 scale): 500 g ai/ha, postemergence, 0 is no effect, 100 is complete control; for Ryegrass, Italian plant response rating: Postemergence, 125 g ai/ha, 0 to 100 scale (0 no effect, 100 complete control)
Method in brief: as §1

[10] = system: sedge, umbrella (small-flower umbrella sedge, Cyperus difformis); assay: Test B flooded paddy test, visual plant response rating; settings: 250 g ai/ha, Flood, applied to paddy water, 2-leaf stage, evaluated after 13 to 15 days
Method in brief: (§2)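 Compounds added straight into paddy water of pots flooded to 3 cm, with 2-leaf-stage plants of the four species; water level held throughout.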

rice (Oryza sativa) = assay: as above; settings: 250 g ai/ha, Flood, applied to paddy water, 2-leaf stage, evaluated after 13 to 15 days
Method in brief: as §2

[11] = system: barnyardgrass (Echinochloa crus-galli); assay: as above; settings: 250 g ai/ha, Flood, applied to paddy water, 2-leaf stage, evaluated after 13 to 15 days
Method in brief: as §2

[12] = system: ducksalad (Heteranhera limosa); assay: as above; settings: 250 g ai/ha, Flood, applied to paddy water, 2-leaf stage, evaluated after 13 to 15 days
Method in brief: as §2

[13] = system: foxtail, giant (giant foxtail, Setaria faberii); assay: Test A preemergence, visual plant response rating; settings: for Foxtail, Giant plant response rating: 125 g ai/ha, preemergence, 0 to 100 scale, 0 no effect, 100 complete control; for Foxtail, Giant plant response rating (0 to 100 scale): 500 g ai/ha Preemergence, approx. 10 days
Method in brief: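 Ratings use a 0–100 visual scale (100 = complete control) against untreated controls, scored about 10 days after greenhouse treatment. Test chemicals were formulated in surfactant-containing non-phytotoxic solvent and applied either as soil spray after planting (preemergence) or onto one- to two-leaf, 2–10 cm plants (postemergence).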

[14] = system: pigweed (Amaranthus retroflexus); assay: Test A preemergence, visual plant response rating; settings: for Pigweed plant response rating: 125 g ai/ha, preemergence, 0 to 100 scale, 0 no effect, 100 complete control; for Pigweed plant response rating (0 to 100 scale): 500 g ai/ha Preemergence, approx. 10 days
Method in brief: as §1

[15] = system: barnyardgrass (Echinochloa crus-galli); assay: Test A preemergence, visual plant response rating; settings: for Barnyardgrass plant response rating: 125 g ai/ha, preemergence, 0 to 100 scale, 0 no effect, 100 complete control; for Barnyardgrass plant response rating (0 to 100 scale): 500 g ai/ha Preemergence, approx. 10 days
Method in brief: as §1

kochia (Kochia scoparia) [16] = assay: Test A preemergence, visual plant response rating; settings: for Kochia plant response rating: 125 g ai/ha, preemergence, 0 to 100 scale, 0 no effect, 100 complete control; for Kochia plant response rating (0 to 100 scale): 500 g ai/ha Preemergence, approx. 10 days
Method in brief: as §1

[17] = system: ragweed (common ragweed, Ambrosia elatior); assay: Test A preemergence, visual plant response rating; settings: for Ragweed plant response rating: 125 g ai/ha, preemergence, 0 to 100 scale, 0 no effect, 100 complete control; for Ragweed plant response rating (0 to 100 scale): 500 g ai/ha Preemergence, approx. 10 days
Method in brief: as §1

[18] = system: Italian ryegrass (Lolium multiflorum); assay: Test A preemergence, visual plant response rating; settings: for Ryegrass, Italian plant response rating: 125 g ai/ha, preemergence, 0 to 100 scale, 0 no effect, 100 complete control; for Ryegrass, Italian plant response rating (0 to 100 scale): 500 g ai/ha Preemergence, approx. 10 days
Method in brief: as §1

| Structure (SMILES) | Corn plant response rating (0 to 100 scale) (corn (Zea mays)) | Corn plant response rating (corn (Zea mays)) | Foxtail, Giant plant response rating (0 to 100 scale) [1] | Foxtail, Giant plant response rating [1] | Galium plant response rating (0 to 100 scale) [2] | Galium plant response rating [2] | Pigweed plant response rating (0 to 100 scale) [3] | Pigweed plant response rating [3] | Barnyardgrass plant response rating (0 to 100 scale) [4] | Barnyardgrass plant response rating [4] | Kochia plant response rating (0 to 100 scale) (kochia (Kochia scoparia) [5]) | Kochia plant response rating (kochia (Kochia scoparia) [5]) | Blackgrass plant response rating (0 to 100 scale) [6] | Blackgrass plant response rating [6] | Wheat plant response rating (0 to 100 scale) [7] | Wheat plant response rating [7] | Ragweed plant response rating (0 to 100 scale) [8] | Ragweed plant response rating [8] | Ryegrass, Italian plant response rating (0 to 100 scale) [9] | Ryegrass, Italian plant response rating [9] | other results |
| --- | --- | --- | --- | --- | --- | --- | --- | --- | --- | --- | --- | --- | --- | --- | --- | --- | --- | --- | --- | --- | --- |
| CON=C(c1c(O)c(C)nn(C)c1=O)c1ccc(F)c2ccccc12 [Compound 51] | 20 | 10 | 90 | 50 | 100 | 100 | 90 | 90 | 80 | 30 | 90 | 80 | 100 | 90 | 90 | 70 | 100 | 80 | 100 | 90 | Plant response rating, Sedge, Umbrella (0 to 100 scale, 0 is no effect, 100 is complete control) [10]: 65; Plant response rating, Rice (0 to 100 scale, 0 is no effect, 100 is complete control) (rice (Oryza sativa)): 15; Plant response rating, Barnyardgrass (0 to 100 scale, 0 is no effect, 100 is complete control) [11]: 15; Plant response rating, Ducksalad (0 to 100 scale, 0 is no effect, 100 is complete control) [12]: 75; Foxtail, Giant plant response rating [13]: 70; Foxtail, Giant plant response rating (0 to 100 scale) [13]: 100; Pigweed plant response rating [14]: 90; Pigweed plant response rating (0 to 100 scale) [14]: 90; Barnyardgrass plant response rating [15]: 60; Barnyardgrass plant response rating (0 to 100 scale) [15]: 80; Kochia plant response rating (kochia (Kochia scoparia) [16]): 10; Kochia plant response rating (0 to 100 scale) (kochia (Kochia scoparia) [16]): 80; Ragweed plant response rating [17]: 90; Ragweed plant response rating (0 to 100 scale) [17]: 100; Ryegrass, Italian plant response rating [18]: 70; Ryegrass, Italian plant response rating (0 to 100 scale) [18]: 100 |
| CO/N=C(\c1cscc1C)c1c(O)c(C)nn(C)c1=O [Compound 52] | 0 | 0 | 20 | 10 | 80 | 70 | 90 | 70 | 30 | 10 | 60 | 20 | 30 | 0 | 0 | 0 | 90 | 60 | 80 | 10 | Plant response rating, Sedge, Umbrella (0 to 100 scale, 0 is no effect, 100 is complete control) [10]: 0; Plant response rating, Rice (0 to 100 scale, 0 is no effect, 100 is complete control) (rice (Oryza sativa)): 0; Plant response rating, Barnyardgrass (0 to 100 scale, 0 is no effect, 100 is complete control) [11]: 0; Plant response rating, Ducksalad (0 to 100 scale, 0 is no effect, 100 is complete control) [12]: 0; Foxtail, Giant plant response rating [13]: 0; Foxtail, Giant plant response rating (0 to 100 scale) [13]: 10; Pigweed plant response rating [14]: 60; Pigweed plant response rating (0 to 100 scale) [14]: 80; Barnyardgrass plant response rating [15]: 0; Barnyardgrass plant response rating (0 to 100 scale) [15]: 10; Kochia plant response rating (kochia (Kochia scoparia) [16]): 0; Kochia plant response rating (0 to 100 scale) (kochia (Kochia scoparia) [16]): 20; Ragweed plant response rating [17]: 0; Ragweed plant response rating (0 to 100 scale) [17]: 30; Ryegrass, Italian plant response rating [18]: 0; Ryegrass, Italian plant response rating (0 to 100 scale) [18]: 40 |
